Reference: patent publication US5481013A, “Carboxylic acid derivatives” (Ciba-Geigy Corporation, priority 1992, dated 1996)

Columns and labels:
Assay type in all cases: in vivo
[1] = system: Nilaparvata lugens; experiment: Systemic activity against Nilaparvata lugens; details: 144 h, pots with rice plants in 400 ppm aqueous emulsion solution, larvae in stages 2 and 3, evaluated 6 days later, read-out: percentage reduction in population (% activity)
Procedure: (§1) Pots containing rice plants are placed into an aqueous emulsion solution comprising 400 ppm of the active ingredient. The rice plants are subsequently populated with larvae in stages 2 and 3. The test is evaluated 6 days later. The percentage reduction in population (% activity) is determined by comparing the numbers of plant hoppers on the treated plants with those on the untreated plants.

[2] = system: Aphis craccivora; experiment: Activity against Aphis craccivora; details: 400 ppm spray on pea seedlings, 20° C., evaluated after 3 and 6 days, read-out: percentage reduction in population (% activity)
Procedure: Pea seedlings are infected with Aphis craccivora, subsequently sprayed with a spray mixture comprising 400 ppm of the active ingredient, and incubated at 20° C. The test is evaluated after 3 and 6 days. The percentage reduction in population (% activity) is determined by comparing the number of dead aphids on the treated plants with those on the untreated plants.

[3] = system: Heliothis virescens caterpillars; experiment: Activity against Heliothis virescens caterpillars; details: 144 h, 400 ppm spray on young soybean plants, first larval stage, evaluated after 6 days, read-out: percentage reduction in population or in feeding damage (% activity)
Procedure: (§2) Young soybean plants are sprayed with a spray mixture prepared with an aqueous emulsion and comprising 400 ppm of the active ingredient. After the spray coating has dried on, the soybean plants are populated with 10 Heliothis virescens in the first larval stage and placed into a plastic container. The test is evaluated after 6 days. The percentage reduction in population, or the percentage reduction in feeding damage (% activity), is determined by comparing the number of dead caterpillars and the feeding damage on the treated plants with those on the untreated plants.

[4] = system: Bemisia tabaci; experiment: Activity against Bemisia tabaci; details: 336 h, 400 ppm spray on dwarf bean plants with nymphs, evaluated 14 days after application, read-out: activity (hatching percentages vs untreated control)
Procedure: Dwarf bean plants are placed into gauze cages and populated with adult Bemisia tabaci specimens (white fly). After oviposition has taken place, all adults are removed and, 10 days later, the plants with the nymphs located thereon are treated with a spray mixture of the active ingredients to be tested (concentration 400 ppm), which has been prepared with an aqueous emulsion. The test is evaluated for hatching percentages 14 days after the active ingredient has been applied by comparison with the untreated control batches. […] An activity of over 80% is shown, in particular, by compound Nos. 1.01, 2.01 to 2.08, 2.10 to 2.16, 2.22, 2.23, 3.01, 4.01, 4.02, 4.05, 4.06, 5.02, 5.03, 5.06 to 5.08, 5.10, 5.11, 5.20, 5.21 and 6.09.

[5] = system: Nilaparvata lugens; experiment: Activity against Nilaparvata lugens (spray on rice plants); details: 504 h, 400 ppm spray on rice plants, larvae in stages 2 and 3, evaluated after 21 days, read-out: percentage reduction in population (% activity)
Procedure: Rice plants are treated with a spray mixture prepared with an aqueous emulsion and comprising 400 ppm of the active ingredient. After the spray coating has dried on, the rice plants are populated with plant hopper larvae in stages 2 and 3. The test is evaluated after 21 days. The percentage reduction in population (% activity) is determined by comparing the number of surviving plant hoppers on the treated plants with the number of plant hoppers on the untreated plants. […] An activity of over 80% is shown, in particular, by compound Nos. 1.01, 2.01 to 2.03, 2.07, 2.08, 2.10 to 2.16, 2.20, 2.22, 2.23, 2.26, 3.01, 4.01 to 4.06, 4.20, 5.01 to 5.06, 5.08, 5.10 to 5.12, 5.15, 5.16 and 5.20 to 5.25.

[6] = system: Ctenocephalides felis; experiment: Activity against Ctenocephalides felis; details: 504 h, 100 ppm in flea larvae nutrient medium, flea eggs, checked after 21 days
Procedure: 20 to 25 flea eggs are placed into a horizontally positioned 50 ml tissue culture flask into which 15 g of flea larvae nutrient medium comprising 100 ppm of the active ingredient to be tested have previously been introduced. The test flasks are incubated in an incubator at 26° to 27° C. and an atmospheric humidity of 60-70%. After 21 days, the flasks are checked for the presence of adult fleas, unhatched pupae and larvae.

[7] = system: Panonychus ulmi (OP- and carb.- resistant); experiment: Activity against Panonychus ulmi (OP- and carb.- resistant); details: 336 h, 400 ppm spray on apple seedlings, evaluated after 14 days, read-out: percentage reduction in population (% activity)
Procedure: Apple seedlings are populated with adult females of Panonychus ulmi. After seven days, the infested plants are sprayed to drip point with an aqueous emulsion comprising 400 ppm of the test compound and grown in the greenhouse. The test is evaluated after 14 days. The percentage reduction in population (% activity) is determined by comparing the number of dead spider mites on the treated plants with those on the untreated plants. […] An activity of over 80% is shown, in particular, by compound Nos. 1.01, 2.01, 2.07, 2.08, 2.10, 2.12 to 2.16, 2.22, 2.23, 2.26, 3.01, 4.01, 4.02, 4.06, 5.01 to 5.03, 5.05, 5.06, 5.08, 5.10, 5.11, 5.15, 5.16 and 5.20 to 5.25.

[8] = system: Tetranychus urticae; experiment: Activity against Tetranychus urticae; details: 144 h, 400 ppm spray on young bean plants, mixed population, 6 days at 25° C, read-out: percentage reduction in population (% activity)
Procedure: Young bean plants are populated with a mixed population of Tetranychus urticae and, after 1 day, sprayed with a spray mixture prepared with an aqueous emulsion and comprising 400 ppm of the active ingredient. The plants are subsequently incubated for 6 days at 25° C and then evaluated. The percentage reduction in population (% activity) is determined by comparing the number of dead eggs, larvae and adults on the treated plants with those on the untreated ones.

[9] = system: Heliothis virescens; experiment: Ovicidal/larvicidal activity on Heliothis virescens; details: 192 h, 400 ppm spray on eggs deposited on cotton, evaluated after 8 days, read-out: % reduction in population (hatching percentage of eggs and survival rate of caterpillars)
Procedure: Heliothis eggs which have been deposited on cotton are sprayed with a spray mixture prepared with an aqueous emulsion and comprising 400 ppm of the active ingredient. After 8 days, the hatching percentage of the eggs and the survival rate of the caterpillars are evaluated by comparing them with untreated control batches (% reduction in population).

[10] = system: Nephotettix cincticeps; experiment: Activity against Nephotettix cincticeps (spray on rice plants); details: 504 h, 400 ppm spray on rice plants, larvae in stages 2 and 3, evaluated 21 days later, read-out: percentage reduction in population (% activity)
Procedure: Rice plants are treated with a spray mixture prepared with an aqueous emulsion and comprising 400 ppm of the active ingredient. After the spray coating has dried on, the rice plants are populated with leaf hopper larvae in stages 2 and 3. The test is evaluated 21 days later. The percentage reduction in population (% activity) is determined by comparing the number of surviving leaf hoppers on the treated plants with those on the untreated plants.

[11] = system: Nephotettix cincticeps; experiment: Systemic activity against Nephotettix cincticeps; details: 144 h, pots with rice plants in 400 ppm aqueous emulsion solution, larvae in stages 2 and 3, evaluated after 6 days, read-out: percentage reduction in population (% activity)
Procedure: as §1, with “evaluated after” for “evaluated”, “6 days.” for “6 days later.”, “the number” for “the numbers”, “of leaf” for “of plant”

[12] = system: Dermanyssus gallinae; experiment: Activity against Dermanyssus gallinae; details: 72 h, 10 ppm solution, mites in different development stages, after 3 days
Procedure: 2 to 3 ml of a solution comprising 10 ppm of active ingredient and approximately 200 mites in different development stages are placed into a glass container which is open at the top. The container is then sealed with a cottonwool ball, shaken for 10 minutes until the mites are wetted completely, and then briefly turned over so that the remaining test solution can be absorbed by the cottonwool. After 3 days, the mortality of the mites is determined by counting the dead individuals; it is given as a percentage.

[13] = system: Crocidolomia binotalis caterpillars; experiment: Activity against Crocidolomia binotalis caterpillars; details: Brassica oleracea, 72 h; 400 ppm spray on young cabbage plants, third larval stage, evaluated after 3 days; read-out: percentage reduction in population or in feeding damage (% activity)
Procedure: as §2, with “cabbage” for “soybean”, “infested” for “populated”, “Crocidolomia binotalis” for “Heliothis virescens”, “third” for “first”, “3” for “6”

[14] = system: adult Anthonomus grandis; experiment: Activity against adult Anthonomus grandis; details: 72 h, 400 ppm spray on young cotton plants, adults, evaluated after 3 days, read-out: percentage reduction in population or in feeding damage (% activity)
Procedure: as §2, with “cotton” for “soybean”, “adult Anthonomus grandis” for “Heliothis virescens in the first larval stage”, “3” for “6”, “beetles” for “caterpillars”

O=C(CCCC=C(F)F)OCCOc1ccc(OC(=O)c2ccccc2)cc1 [Compound 2.22]
> 80%: activity at 400 ppm [1] | activity at 400 ppm [2] | activity at 400 ppm [3] | pest or weed control at 400 ppm [4] | activity at 400 ppm [5] | pest or weed control at 100 ppm [6] | activity at 400 ppm [7] | activity at 400 ppm [8] | pest or weed control at 400 ppm [9]

O=C(CCCC=C(F)F)OCCOc1ccc(OC(=O)Oc2ccccc2)cc1 [Compound 2.23]
> 80%: activity at 400 ppm [1] | activity at 400 ppm [2] | activity at 400 ppm [3] | pest or weed control at 400 ppm [4] | activity at 400 ppm [5] | pest or weed control at 100 ppm [6] | activity at 400 ppm [7] | activity at 400 ppm [10] | activity at 400 ppm [8] | pest or weed control at 400 ppm [9]

O=C(CCCCCCCC=C(F)F)OCCOc1ccc(Oc2ccccc2)cc1 [Compound 4.01]
> 80%: activity at 400 ppm [3] | activity at 400 ppm [11] | pest or weed control at 400 ppm [4] | activity at 400 ppm [7] | activity at 400 ppm [10] | mortality at 10 ppm [12]

O=C(CCCCCCCC=C(F)F)OCCOc1ccc(Sc2ccccc2)cc1 [Compound 4.02]
> 80%: activity at 400 ppm [3] | activity at 400 ppm [11] | pest or weed control at 400 ppm [4] | activity at 400 ppm [7] | activity at 400 ppm [10] | mortality at 10 ppm [12]

CC(COC(=O)CCCCCCCC=C(F)F)Oc1ccc(Oc2ccccc2)cc1 (centres unmarked) [Compound 4.06]
> 80%: activity at 400 ppm [3] | activity at 400 ppm [11] | pest or weed control at 400 ppm [4] | activity at 400 ppm [7] | activity at 400 ppm [10] | mortality at 10 ppm [12]

O=C(CCCCCCCCCC=C(F)F)OCCOc1ccc(Oc2ccccc2)cc1 [Compound 5.01]
> 80%: activity at 400 ppm [13] | activity at 400 ppm [14]

O=C(CCCCCCCCCC=C(F)F)OCCOc1ccc(Sc2ccccc2)cc1 [Compound 5.02]
> 80%: activity at 400 ppm [13] | pest or weed control at 400 ppm [4] | activity at 400 ppm [14]

O=C(CCCCCCCCCC=C(F)F)OCCOc1ccc(OCc2ccccc2)cc1 [Compound 5.05]
> 80%: activity at 400 ppm [2] | activity at 400 ppm [13] | activity at 400 ppm [7] | activity at 400 ppm [10] | activity at 400 ppm [14]

O=C(CCCCCCCCCC=C(F)F)OCCOc1ccc(OCc2cccc(F)c2)cc1 [Compound 5.24]
> 80%: activity at 400 ppm [3] | activity at 400 ppm [11] | activity at 400 ppm [10]
